Experimental data taken from patent publication US8383637B2, “2-amino-quinazoline derivatives useful as inhibitors of β-secretase (BACE)” (Jansssen Pharmaceutica N.V., priority 2004, dated 2013).

Columns and labels:
β-secretase(BACE) [1] = target: T1, β-secretase(BACE) (Homo sapiens, UniProt P56817); assay: BACE FS1% Inhibition Assay; assay type: biochemical; conditions: FS1 substrate; for inhibition at 0.3 µM / % Inhibition (FS) 0.3 μM: 0.3 μM test compound; for inhibition at 0.3 µM: read-out: % Inhibition (FS) 0.3 μM; for inhibition at 1 µM: read-out: % Inhibition (FS) 1 μM; for inhibition at 3 µM: read-out: % Inhibition (FS) 3 μM
T1 construct: purchased Panvera
How it was run: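 Human BACE (4 μg/mL working solution) preincubated 20 min at room temperature with compound, then FS1 substrate (300 μg/mL working solution) added and incubated 1 h at room temperature. Percent inhibition calculated at each compound concentration against blank and vehicle controls.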

β-secretase(BACE) [2] = target: T1, β-secretase(BACE); assay: BACE Assay-2 (FS1 substrate, IC50 and Ki); assay type: biochemical; conditions: procedure of Example 159, FS1 substrate; read-out: Ki μM (159)
Protocol: The FS1-substrate stock solution was prepared in DMSO as a 10 mg/mL solution. The FS1-substrate working solution was prepared by diluting the 10 mg/mL stock solution with substrate assay buffer to a final concentration of 300 μg/mL. The β-secretase (BACE) working solution was prepared by diluting a 0.83 mg/mL BACE stock solution with enzyme assay buffer to a final concentration of 4 μg/mL.
Test compounds were dissolved in DMSO at 10 mM.
The procedure for this assay was as follows: 15 μL of BACE working solution was pipetted into each well of a 96-well plate. To each well was then pipetted 2 μL of test compound at the selected concentration. Test compound and BACE were then mixed with a pipettor and incubated for 20 min at room temperature. To each well was then added 10 μL of the FS1 substrate working solution.
The procedure for the positive control was as follows: 15 μL of BACE working solution was pipetted into each well to be used as a positive control. To each well was then pipetted 2 μL of vehicle. Vehicle and BACE were then mixed with a pipettor and incubated for 20 min at room temperature. To each well was then added 10 μL of the FS1 substrate working solution.
For test compounds, measured at multiple concentrations, the measured T0 and T60 values were used to calculate an IC50 value using Graphpad Software (or PIR). For test compounds, Ki inhibition was determined as follows: For each compound concentration and positive control, rate of cleavage of substrate (Vi, where i=compound concentration in μM) was determined as Δ Fluorescence/Δ time (min). Cleavage rates (Vi) were plotted as a function of inhibitor concentration in μM [I]. The Ki was then determined by fitting the following equation to the graph of [I] vs Vi Y=aVmax/(50+24*(1+X/Ki)),

T1 sequence (P56817 46-501): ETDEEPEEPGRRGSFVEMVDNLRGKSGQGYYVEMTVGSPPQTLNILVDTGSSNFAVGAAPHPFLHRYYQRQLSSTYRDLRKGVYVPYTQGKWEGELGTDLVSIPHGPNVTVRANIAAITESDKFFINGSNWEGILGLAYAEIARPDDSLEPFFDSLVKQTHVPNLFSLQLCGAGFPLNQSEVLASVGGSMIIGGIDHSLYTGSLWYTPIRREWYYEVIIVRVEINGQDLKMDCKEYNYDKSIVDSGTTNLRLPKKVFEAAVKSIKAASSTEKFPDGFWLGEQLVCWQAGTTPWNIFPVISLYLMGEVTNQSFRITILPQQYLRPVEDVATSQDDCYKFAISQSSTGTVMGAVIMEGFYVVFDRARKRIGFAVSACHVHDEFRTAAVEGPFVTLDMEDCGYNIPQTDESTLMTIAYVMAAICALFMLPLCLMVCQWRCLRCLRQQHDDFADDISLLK

Structure (SMILES)	inhibition at 0.3 µM (β-secretase(BACE) [1]) [%]	inhibition at 1 µM (β-secretase(BACE) [1]; 1 μM test compound) [%]	inhibition at 3 µM (β-secretase(BACE) [1]; 3 μM test compound) [%]	Ki (β-secretase(BACE) [2]) [µM]	% Inhibition (FS) 0.3 μM (β-secretase(BACE) [1]) [%]	% Inhibition (FS) 1 μM (β-secretase(BACE) [1]; 1 μM test compound, 1 µM) [%]	% Inhibition (FS) 3 μM (β-secretase(BACE) [1]; 3 μM test compound, 3 µM) [%]
CCC(c1cccc(C(=O)N(C2CCCCC2)C2CCCCC2)c1)N1Cc2cc(-c3ccccc3OC)ccc2N=C1N (stereo not drawn) [Compound 418]	54	89	119	0.035			
CCC(c1cccc(C(=O)N(C2CCCCC2)C2CCCCC2)c1)N1Cc2cc(Oc3ccccc3)ccc2N=C1N (stereo not drawn) [Compound 419]	38	64	109	0.29			
CN(C(=O)c1ccc(CN2Cc3cc(Oc4ccccc4)ccc3N=C2N)o1)C1CCCCC1 [Compound 424, 5-(2-Amino-6-phenoxy-4H-quinazolin-3-ylmethyl)-furan-2-carboxylic acid cyclohexyl-methyl-amide]	< 30	50	94	0.4			
CN(CCN1Cc2cc(Oc3ccccc3)ccc2N=C1N)C(=O)C1CCCCC1 [Compound 426, Cyclohexanecarboxylic acid [2-(2-amino-6-phenoxy-4H-quinazolin-3-yl)-ethyl]-methyl-amide]	< 30	34	86	0.53			
CN(CCCN1Cc2cc(Oc3ccccc3)ccc2N=C1N)C1CCCCC1 [Compound 428, 3-[3-(Cyclohexyl-methyl-amino)-propyl]-6-phenoxy-3,4-dihydro-quinazolin-2-ylamine]	< 30	60	98	0.23			
CN(C(=O)c1cccc(CN2Cc3cc(Nc4ccccc4)ccc3N=C2N)c1)C1CCCCC1 [Compound 432]	< 30	41	84	0.86			
CC(C)[C@@H](CCC(=O)N(C)C1CCCCC1)N1Cc2cc(Oc3ccccc3)ccc2N=C1N [Compound 444]	< 30	< 30	30	0.58			
CN(C(=O)c1ccnc(CN2Cc3cc(Oc4ccccc4)ccc3N=C2N)c1)C1CCCCC1 [Compound 508, 2-(2-Amino-6-phenoxy-4H-quinazolin-3-ylmethyl)-N-cyclohexyl-N-methyl-isonicotinamide]	31	74	113	0.15			
CC1CCCCC1NC(=O)CCN1Cc2cc(Oc3ccccc3)ccc2N=C1N (stereo not drawn) [Compound 511]	34	85	113	0.1			
NC1=Nc2ccc(-c3ccccc3)cc2CN1CCNC(=O)C1CCCCC1 [Compound 515]	41	66	110	0.13			
CN(C(=O)c1cccc(C(C2CCCCC2)N2Cc3cc(Oc4ccccc4)ccc3N=C2N)c1)C1CCCCC1 (stereo not drawn) [Compound 534]	54	103	126	0.18			
NC1=Nc2ccc(-c3ccccc3F)cc2CN1CCNC(=O)C1CCCCC1 [Compound 535]	57	86	116	0.076			
NC1=Nc2ccc(-c3ccccc3Cl)cc2CN1CCNC(=O)C1CCCCC1 [Compound 536]	61	83	118	0.086			
Cc1ccccc1-c1ccc2c(c1)CN(CCNC(=O)C1CCCCC1)C(N)=N2 [Compound 537]	83	106	125	0.041			
NC1=Nc2ccc(-c3ccccc3O)cc2CN1CCNC(=O)C1CCCCC1 [Compound 538]	< 30	53	100	0.44			
COc1cccc(F)c1-c1ccc2c(c1)CN(CCNC(=O)C1CCCCC1)C(N)=N2 [Compound 545]	55	77	118	0.14			
COc1ccccc1-c1ccc2c(c1)CN(CCC(=O)NC1C3CC4CC(C3)CC1C4)C(N)=N2 (stereo not drawn) [Compound 556]	103	118	126	0.044			
CN(C(=O)CC[C@@H](CO)N1Cc2cc(Oc3ccccc3)ccc2N=C1N)C1CCCCC1 [Compound 558, (S)-enantiomer of 4-(2-Amino-6-phenoxy-4H-quinazolin-3-yl)-5-hydroxy-pentanoic acid cyclohexyl-methyl-amide]	42	92	115	0.16			
CC(C)[C@H](CNC(=O)C1CCCCC1)N1Cc2cc(Oc3ccccc3)ccc2N=C1N [Compound 561]	114	118	125	0.016			
CC(C)CC(=O)NC[C@@H](C(C)C)N1Cc2cc(Oc3ccccc3)ccc2N=C1N [Compound 563]	101	119	127	0.02			
NC1=Nc2ccc(-c3ccccc3)cc2CN1CCNC(=O)CC1CCCC1 [Compound 578]	< 30			0.18	31		
NC1=Nc2ccc(-c3cccc(CO)c3)cc2CN1CCNC(=O)CC1CCCC1 [Compound 583]	40	56	86	0.49			
CCCC(CNC(=O)C1CCCCC1)N1Cc2cc(Oc3ccccc3)ccc2N=C1N (stereo not drawn) [Compound 601]				0.027	105	115	121
CONC1=Nc2ccc(-c3ccccc3OC)cc2CN1Cc1cccc(C(=O)N(C)C2CCCCC2)c1 [Compound 605, N-Cyclohexyl-3-[2-methoxyamino-6-(2-methoxy-phenyl)-4H-quinazolin-3-ylmethyl]-N-methyl-benzamide]	47	72	111	0.54			
COc1ccccc1-c1ccc2c(c1)CN(CCC(=O)NC1CCCCC1)C(N)=N2 [Compound 610]	75	106	119	0.076			
CN(C(=O)CCN1Cc2cc(Oc3ccccc3)ccc2N=C1N)C1C2CC3CC(C2)CC1C3 (stereo not drawn) [Compound 618]	< 30	70	104	0.19			
CN(C(=O)CCC(C1CCOCC1)N1Cc2cc(Oc3ccccc3)ccc2N=C1N)C1CCCCC1 (stereo not drawn) [Compound 619]	119	118	125	0.011			
NC1=Nc2ccc(-c3cccc(Cl)c3)cc2CN1CCNC(=O)C1CCCCC1 [Compound 625]	< 30	54	95	0.27			
